Values quoted from earlier work in patent publication US20040229855A1, “Antiglucocorticoids for the treatment of postpartum psychosis” (Corcept Therapeutics, Inc., priority 2003, published 2004).

Key:
glucocorticoid receptor = biological target: T1, glucocorticoid receptor (Homo sapiens, UniProt P04150); conditions: cited from earlier work
T1 sequence (P04150 1-777): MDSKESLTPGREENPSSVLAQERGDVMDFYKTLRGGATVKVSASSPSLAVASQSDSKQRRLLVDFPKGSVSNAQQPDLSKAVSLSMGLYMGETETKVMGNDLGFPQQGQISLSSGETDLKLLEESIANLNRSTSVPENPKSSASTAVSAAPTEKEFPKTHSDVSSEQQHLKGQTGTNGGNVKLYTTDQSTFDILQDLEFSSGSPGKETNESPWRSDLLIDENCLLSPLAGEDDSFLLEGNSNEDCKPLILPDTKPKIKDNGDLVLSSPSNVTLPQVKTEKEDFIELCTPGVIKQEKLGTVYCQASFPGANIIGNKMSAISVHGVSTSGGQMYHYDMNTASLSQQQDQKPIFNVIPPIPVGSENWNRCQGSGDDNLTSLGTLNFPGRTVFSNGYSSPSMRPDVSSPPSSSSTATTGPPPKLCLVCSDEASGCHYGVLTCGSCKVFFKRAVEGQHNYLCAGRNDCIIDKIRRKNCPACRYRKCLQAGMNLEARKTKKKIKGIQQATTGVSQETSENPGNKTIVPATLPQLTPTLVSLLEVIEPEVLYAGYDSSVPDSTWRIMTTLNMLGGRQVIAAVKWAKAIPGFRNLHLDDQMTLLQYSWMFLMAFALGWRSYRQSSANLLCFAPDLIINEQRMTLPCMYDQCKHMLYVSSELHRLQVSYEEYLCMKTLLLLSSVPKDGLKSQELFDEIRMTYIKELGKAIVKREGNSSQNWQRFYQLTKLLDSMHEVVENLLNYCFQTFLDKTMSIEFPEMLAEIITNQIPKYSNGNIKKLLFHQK

[1] = in one study (Kawai 1989); cited from earlier work
progesterone receptor = biological target: T2, progesterone receptor (Homo sapiens, UniProt P06401); conditions: cited from earlier work
T2 sequence (P06401 1-933): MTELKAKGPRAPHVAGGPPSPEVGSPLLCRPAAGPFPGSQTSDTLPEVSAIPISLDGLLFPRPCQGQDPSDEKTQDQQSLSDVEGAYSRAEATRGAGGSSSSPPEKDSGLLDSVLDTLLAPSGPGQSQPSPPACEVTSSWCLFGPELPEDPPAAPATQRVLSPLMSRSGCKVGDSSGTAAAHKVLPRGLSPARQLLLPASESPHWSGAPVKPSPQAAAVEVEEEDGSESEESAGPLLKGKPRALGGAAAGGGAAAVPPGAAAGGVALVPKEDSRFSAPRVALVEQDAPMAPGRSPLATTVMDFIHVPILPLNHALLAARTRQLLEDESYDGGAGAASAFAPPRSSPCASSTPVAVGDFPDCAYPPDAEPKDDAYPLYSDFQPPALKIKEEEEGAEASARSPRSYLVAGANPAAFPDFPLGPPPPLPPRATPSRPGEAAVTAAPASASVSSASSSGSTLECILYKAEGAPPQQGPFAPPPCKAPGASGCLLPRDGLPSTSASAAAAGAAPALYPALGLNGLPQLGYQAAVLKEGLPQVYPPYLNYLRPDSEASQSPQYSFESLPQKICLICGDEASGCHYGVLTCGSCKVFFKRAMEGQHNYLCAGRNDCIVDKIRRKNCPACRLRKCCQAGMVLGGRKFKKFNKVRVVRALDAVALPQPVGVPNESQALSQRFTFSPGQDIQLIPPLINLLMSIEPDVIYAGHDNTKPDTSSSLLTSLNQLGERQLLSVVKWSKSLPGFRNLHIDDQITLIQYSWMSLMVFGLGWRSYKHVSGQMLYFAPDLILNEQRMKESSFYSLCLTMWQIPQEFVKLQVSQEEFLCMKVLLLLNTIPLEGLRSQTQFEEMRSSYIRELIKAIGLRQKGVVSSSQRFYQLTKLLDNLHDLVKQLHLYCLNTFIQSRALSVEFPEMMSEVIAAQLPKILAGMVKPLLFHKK

Compound: CC#C[C@]1(O)CC[C@H]2[C@@H]3CCC4=CC(=O)CCC4=C3[C@@H](c3ccc(OCCN(C)C)cc3)C[C@@]21C [RU009, 11β-(4-dimethylaminoethoxyphenyl)-17α-propynyl-17β-hydroxy-4,9 estradien-3-one]
- glucocorticoid receptor antagonist activity (glucocorticoid receptor): glucocorticoid receptor antagonist effects

Compound: CC#C[C@]1(O)CC[C@H]2[C@@H]3CCC4=CC(=O)CCC4=C3[C@@H](c3ccc(N(C)C)cc3)C[C@@]21C [mifepristone, 17-β-hydroxy-11-β-(4-dimethyl-aminophenyl)-17-α-(1-propynyl)-estra-4,9-dien-3-one]
- daily dose excreted in the urine [1]: less than 0.5%
- glucocorticoid receptor antagonist activity (glucocorticoid receptor): powerful antagonist
- progesterone receptor antagonist activity (progesterone receptor): powerful antagonist
